Assay results reported in patent US7557092B2, “Purinergic modulation of smell” (University of Utah Research Foundation, priority 2002, dated 2009).

Assays:
[1] = system: P2X and P2Y purinergic receptors; settings: cited from earlier work
[2] = system: ORNs in neonatal mouse OE slices; assay: on-cell current-clamp recording of cyclic nucleotide-induced electrical responses; format: cell-based; settings: 10 μM ATP co-applied with cyclic nucleotide mixture (IBMX, CPT-cAMP, 8-Br-cGMP), n=3 cells
Experimental: Filled triangles correspond to the time of loop injection of the test solutions. […] Various test solutions were superfused onto the slice for 30 seconds, indicated by the shaded region. The cell was allowed to recover for 7 minutes after each test application. Note that the coapplication of ATP (10 μM) and the mixture suppressed the evoked membrane potential changes. […] N=3 from three slices, also indicated in each column.
Electro-olfactogram and on-cell recordings: Slices of P0-P6 mouse OE were prepared as described above and mounted in a perfusion chamber with a bath flow of […]. Test chemicals were introduced using a rotary injection valve (Rheodyne, Cotati, Calif.). The electro-olfactogram (EOG) recording electrode (3 M NaCl in 1% agar; tip diameter, 5-10 um) was positioned along the dorsal portion of the nasal septum. The differential electrode (identical to the recording electrode) was positioned over skull cartilage and an […] ground electrode was connected to the bath solution via a 3 M KCl agar bridge. […]
For the noninvasive on-cell recordings (Chiu et al., 1997), the same electronics were used as described for nystatin-patch experiments. […] The time course of solution delivery was determined by placing an electrode in a slice and switching from Ringer's solution to distilled water. […]

[3] = molecular target: P2Y4 (Homo sapiens, UniProt P51582); settings: cDNA from Human chromosome X; cited from earlier work
[4] = system: ORNs in mouse olfactory epithelium slices; assay: confocal calcium imaging of fluo-4 AM loaded olfactory epithelium slices, ORNs; format: cell-based; settings: 10 μM agonist superfused onto slice
Description: (§1) To study the effects of ATP on odor responses, acutely prepared slices of mouse olfactory epithelium were used. Confocal imaging of fluo-4 AM-loaded olfactory epithelium slices allows simultaneous recording from identified structures within the olfactory epithelium, i.e., both ORNs and sustentacular cells. […] The difference in robustness can be due to poor access to the ATP stimulus: odorant receptors are on the cilia of the ORNs, which extend beyond the outer edge of the olfactory epithelium, whereas purinergic receptors are located deeper within the olfactory epithelium. […] The latency of activation for the ATP-evoked calcium transient was shorter in the ORN (FIG. 3B2, solid up arrowhead) than in sustentacular cells (FIG. 3B3, open down arrowhead). Collectively, this was consistent with ORNs expressing the faster P2X receptors, and the sustentacular cells expressing the slower G-protein coupled P2Y receptors.
(§2) To prepare olfactory epithelium slices, neonatal mice (postnatal day 0-6) were quickly decapitated, and the skin and lower jaw were removed. Tissue was mounted in ice cold Ringers onto a vibratome-cutting block and 300 μm slices were made. Primary cultures of mouse ORNs were made using the same protocol and culture conditions as described for rat olfactory receptor neurons (Vargas and Lucero, 1999a). Briefly, tissue was placed in divalent cation-free Ringers containing 10 mg/ml bovine serum albumin, 1 mg/ml deoxyribonuclease II and 44 U/ml dispase, incubated at 37° C. for 45 min. The tissue was washed, triturated, and filtered through a […] mesh and […] cells were plated onto concanavalin A-coated coverslips and allowed to settle for 20 min. An additional 1.5 ml of culture medium was added (DMEM supplemented with […] ascorbic acid, 1X insulin-transferrin-seleniumX (GIBCO BRL), 2 mM glutamine, 100 U/ml penicillin G and […] streptomycin).
(§3) [Ca^2+]i was determined using confocal imaging of fluo-4 AM (18 μM; Molecular Probes) loaded cells and slices. Cells or slices were placed in a laminar flow chamber (Warner Instruments) and perfused continuously with Ringers solution at a flow rate of 1.5-2.0 ml/min. Ringers contained (mM): 140 NaCl, 5 KCl, 1 MgCl2, 2 CaCl2, 10 HEPES, 10 glucose, […] and 400 nM tetrodotoxin. Test solutions were applied using bath exchange and a small volume loop injector (200 μl). A Zeiss LSM 510 confocal laser scanning system was used for data collection and analysis. Time series experiments were performed collecting 1400×700 pixel images at 0.2-0.4 Hz. The fluorometric signals obtained are expressed as relative fluorescence change, ΔF/F═(F−F0)/F0, where F0 is the basal fluorescence level. Increases in F greater than 10% above baseline noise were considered responses.

[5] = system: cultured mouse ORNs; assay: confocal calcium imaging of fluo-4 AM loaded cultured ORNs; format: cell-based
[6] = system: sustentacular cells in mouse olfactory epithelium slices; assay: confocal calcium imaging of fluo-4 AM loaded olfactory epithelium slices, sustentacular cells; format: cell-based; settings: 10 μM agonist superfused onto slice
Description: as §1, §2, §3

Chain of P2Y4 (P51582 whole entry, the tested form may be a part): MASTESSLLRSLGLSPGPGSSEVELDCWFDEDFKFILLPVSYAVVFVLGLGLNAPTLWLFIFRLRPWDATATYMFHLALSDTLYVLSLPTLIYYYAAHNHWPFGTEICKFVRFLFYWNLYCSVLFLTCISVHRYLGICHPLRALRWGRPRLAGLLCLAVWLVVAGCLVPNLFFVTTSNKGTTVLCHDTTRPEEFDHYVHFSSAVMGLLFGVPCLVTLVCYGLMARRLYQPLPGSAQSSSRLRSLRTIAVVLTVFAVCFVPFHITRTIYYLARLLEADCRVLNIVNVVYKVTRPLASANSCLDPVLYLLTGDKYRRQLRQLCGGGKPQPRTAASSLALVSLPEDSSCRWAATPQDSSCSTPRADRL

## Nc1ncnc2c1ncn2[C@@H]1O[C@H](COP(=O)(O)OP(=O)(O)OP(=O)(O)O)[C@@H](O)[C@H]1O [ATP, Adenosine 5′-triphosphate]
[1]
  concentrations that activate P2X and P2Y purinergic receptors: 0.1 to 10 µM
[2]
  reduction of the electrical activity of the ORN: 67±2%
[3]
  Agonist activity: UTP > UDP (ATP inactive)
[4]
  agonist-evoked calcium transients in ORNs: evoked calcium transients from all 11 ORNs
[5]; 10 μM ATP, 0 Ca2+ + EGTA
  ATP-induced rise in [Ca2+]i in the absence of external Ca2+, larger than in the presence of Ca2+: 31±11%
[5]; 10 μM ATP, n=76
  ΔF/F increase in [Ca2+]i, average: 151±12%
  ΔF/F increase in [Ca2+]i, range: 13-398%
[5]; Mus musculus, averaged dose-response, maximum % ΔF/F relative to 10 μM ATP, n=58, read-out: EC50 of ATP-induced [Ca2+]i increases
  EC50: 1600 nM
[5]; extracellularly applied ATP
  ORNs with rapid transient increase in [Ca2+]i: 76/84
[6]
  agonist-evoked calcium transients in sustentacular cells: evoked calcium transients
